# Where a name gives a salt, the structure may show the parent alone.
# Assays:
# Vps34 = Vps34 (Homo sapiens (Human), UniProt Q8NEB9); conditions: read-out: Assay C VPS34 IC50
# PI 4-kinase beta = PI 4-kinase beta (Homo sapiens (Human), UniProt Q9UBF8); conditions: read-out: Assay D PI4Kβ IC50
# Sequence of PI 4-kinase beta (Q9UBF8 whole entry): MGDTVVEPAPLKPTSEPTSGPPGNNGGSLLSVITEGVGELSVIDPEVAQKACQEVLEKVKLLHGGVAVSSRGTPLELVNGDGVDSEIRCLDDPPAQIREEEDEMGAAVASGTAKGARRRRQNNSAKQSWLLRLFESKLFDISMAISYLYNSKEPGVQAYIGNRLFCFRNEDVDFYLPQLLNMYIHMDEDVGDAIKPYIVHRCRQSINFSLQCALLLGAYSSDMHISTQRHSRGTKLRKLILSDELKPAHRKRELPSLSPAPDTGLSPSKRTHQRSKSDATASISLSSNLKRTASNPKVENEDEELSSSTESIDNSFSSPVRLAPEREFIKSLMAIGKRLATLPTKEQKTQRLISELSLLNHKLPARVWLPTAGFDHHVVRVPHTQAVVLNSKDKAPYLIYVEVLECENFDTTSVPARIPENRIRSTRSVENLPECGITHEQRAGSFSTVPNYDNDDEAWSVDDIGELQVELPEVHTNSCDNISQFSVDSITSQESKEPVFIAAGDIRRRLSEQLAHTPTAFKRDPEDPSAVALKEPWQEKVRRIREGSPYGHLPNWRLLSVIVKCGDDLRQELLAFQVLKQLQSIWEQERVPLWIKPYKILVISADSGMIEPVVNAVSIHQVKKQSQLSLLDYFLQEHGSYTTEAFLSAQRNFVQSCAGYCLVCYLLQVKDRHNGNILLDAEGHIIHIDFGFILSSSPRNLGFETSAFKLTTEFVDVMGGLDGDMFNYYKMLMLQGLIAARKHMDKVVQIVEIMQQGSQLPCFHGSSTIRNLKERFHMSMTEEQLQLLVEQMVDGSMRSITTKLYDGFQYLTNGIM
# Sequence of Vps34 (Q8NEB9 whole entry): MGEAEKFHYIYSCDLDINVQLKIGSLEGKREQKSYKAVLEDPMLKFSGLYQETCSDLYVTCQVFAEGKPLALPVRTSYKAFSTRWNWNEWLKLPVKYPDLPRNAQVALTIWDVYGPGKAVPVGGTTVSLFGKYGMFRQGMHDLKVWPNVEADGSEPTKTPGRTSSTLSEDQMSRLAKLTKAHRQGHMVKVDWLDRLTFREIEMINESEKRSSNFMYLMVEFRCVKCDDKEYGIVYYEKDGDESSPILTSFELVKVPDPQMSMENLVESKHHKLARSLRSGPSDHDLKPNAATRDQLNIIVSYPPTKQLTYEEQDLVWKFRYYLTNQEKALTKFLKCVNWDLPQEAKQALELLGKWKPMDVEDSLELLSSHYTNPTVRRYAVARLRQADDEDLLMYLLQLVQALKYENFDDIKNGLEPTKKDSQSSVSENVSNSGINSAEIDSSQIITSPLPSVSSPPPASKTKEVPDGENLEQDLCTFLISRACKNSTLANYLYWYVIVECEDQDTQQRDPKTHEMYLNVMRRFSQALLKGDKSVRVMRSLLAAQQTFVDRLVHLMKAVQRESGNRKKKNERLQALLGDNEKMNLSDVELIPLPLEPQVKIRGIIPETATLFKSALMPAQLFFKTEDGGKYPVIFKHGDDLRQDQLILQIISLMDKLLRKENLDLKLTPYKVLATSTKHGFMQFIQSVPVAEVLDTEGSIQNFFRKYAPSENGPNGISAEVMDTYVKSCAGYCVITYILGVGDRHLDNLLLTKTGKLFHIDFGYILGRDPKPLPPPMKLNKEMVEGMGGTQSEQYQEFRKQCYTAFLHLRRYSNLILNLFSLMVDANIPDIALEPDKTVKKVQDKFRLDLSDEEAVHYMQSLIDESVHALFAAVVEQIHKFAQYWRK
Structure (SMILES),IC50 (Vps34),IC50 (PI 4-kinase beta)
"Cc1noc(-c2cc(-c3cc(S(=O)(=O)NC4CC(F)(F)C4)ccc3C)cnc2N)n1 [Example 37.17, 3-(6-Amino-5-(3-methyl-1,2,4-oxadiazol-5-yl)pyridin-3-yl)-N-(3,3-difluorocyclobutyl)-4-methylbenzenesulfonamide]",> 10 µM,8.6 µM
"Cc1noc(-c2cc(-c3cc(S(=O)(=O)NCC4(O)CC4)ccc3C)cnc2N)n1 [Example 37.19, 3-(6-Amino-5-(3-methyl-1,2,4-oxadiazol-5-yl)pyridin-3-yl)-N-((1-hydroxycyclopropyl)methyl)-4-methylbenzenesulfonamide]",> 10 µM,8.6 µM
"Cc1noc(-c2cc(-c3cc(S(=O)(=O)NCCC4(O)CCCCC4)ccc3C)cnc2N)n1 [Example 37.31, 3-(6-Amino-5-(3-methyl-1,2,4-oxadiazol-5-yl)pyridin-3-yl)-N-(2-(1-hydroxycyclohexyl)ethyl)-4-methylbenzenesulfonamide]",> 10 µM,6.2 µM
"Cc1cc(-c2cc(-c3cc(S(=O)(=O)NC[C@@H]4CCOC4)ccc3C)cnc2N)on1 [Example 38, (S)-3-(6-Amino-5-(3-methylisoxazol-5-yl)pyridin-3-yl)-4-methyl-N-((tetrahydrofuran-3-yl)methyl)benzenesulfonamide]",> 10 µM,3.1 µM
"Cc1noc(-c2cc(-c3cc(S(=O)(=O)NCC4(O)CCOCC4)ccc3C)cnc2N)n1 [Example 51, 3-(6-Amino-5-(3-methyl-1,2,4-oxadiazol-5-yl)pyridin-3-yl)-N-((4-hydroxytetrahydro-2H-pyran-4-yl)methyl)-4-methylbenzenesulfonamide]",> 10 µM,> 10 µM
"Cc1noc(-c2cc(-c3cc(S(=O)(=O)NCC4(CO)COC4)ccc3C)cnc2N)n1 [Example 52, 3-(6-Amino-5-(3-methyl-1,2,4-oxadiazol-5-yl)pyridin-3-yl)-N-((3-(hydroxymethyl)oxetan-3-yl)methyl)-4-methylbenzenesulfonamide]",> 10 µM,> 10 µM
"Cc1noc(-c2cc(-c3cc(S(=O)(=O)NO[C@H]4C[C@H](O)C4)ccc3C)cnc2N)n1 [Example 55, trans-3-(6-Amino-5-(3-methyl-1,2,4-oxadiazol-5-yl)pyridin-3-yl)-N-(3-hydroxycyclobutoxy)-4-methylbenzenesulfonamide]",> 10 µM,4.7 µM
"Cc1noc(-c2cc(-c3cc(S(=O)(=O)NCC4(O)COC4)ccc3C)cnc2N)n1 [Example 56, 3-(6-Amino-5-(3-methyl-1,2,4-oxadiazol-5-yl)pyridin-3-yl)-N-((3-hydroxyoxetan-3-yl)methyl)-4-methylbenzenesulfonamide]",> 10 µM,> 10 µM
"Cc1nc(-c2cc(-c3cc(S(=O)(=O)NCC(C)(C)O)ccc3C)cnc2N)cs1 [Example 59, 3-(6-Amino-5-(2-methylthiazol-4-yl)pyridin-3-yl)-N-(2-hydroxy-2-methylpropyl)-4-methylbenzenesulfonamide]",> 10 µM,> 10 µM
"Cc1ccc(S(=O)(=O)NCC(C)(C)O)cc1-c1cnc(N)c(-c2cn(C)nn2)c1 [Example 63, 3-(6-Amino-5-(1-methyl-1H-1,2,3-triazol-4-yl)pyridin-3-yl)-N-(2-hydroxy-2-methylpropyl)-4-methylbenzenesulfonamide hydrochloride]",> 10 µM,9.6 µM
"Cc1ncc(-c2cc(-c3cc(S(=O)(=O)NCC4(C)COC4)ccc3C)cnc2N)o1 [Example 69, 3-(6-Amino-5-(2-methyloxazol-5-yl)pyridin-3-yl)-4-methyl-N-((3-methyloxetan-3-yl)methyl)benzenesulfonamide]",4.4 µM,2.4 µM
"Cc1cccc(NS(=O)(=O)c2ccc(C)c(-c3cnc(N)c(-c4nc(C)no4)c3)c2)n1 [Example 72, 3-(6-Amino-5-(3-methyl-1,2,4-oxadiazol-5-yl)pyridin-3-yl)-4-methyl-N-(6-methylpyridin-2-yl)benzenesulfonamide]",> 10 µM,> 10 µM
"Cc1ncc(-c2cc(-c3cc(S(N)(=O)=O)ccc3C)cnc2N)s1 [Example 74, 3-(6-Amino-5-(2-methylthiazol-5-yl)pyridin-3-yl)-4-methylbenzenesulfonamide]",2.2 µM,5 µM
"Cc1ccc(S(=O)(=O)NCCC(C)(C)O)cc1-c1cnc(N)c(-c2nc(CC(F)(F)F)no2)c1 [Example 79, 3-(6-Amino-5-(3-(2,2,2-trifluoroethyl)-1,2,4-oxadiazol-5-yl)pyridin-3-yl)-N-(3-hydroxy-3-methylbutyl)-4-methylbenzenesulfonamide]",> 10 µM,2.8 µM
"Cc1ccc(S(=O)(=O)NCC(C)(C)O)cc1-c1cnc(N)c(-n2cncn2)c1 [Example 81, 3-(6-Amino-5-(1H-1,2,4-triazol-1-yl)pyridin-3-yl)-N-(2-hydroxy-2-methylpropyl)-4-methylbenzenesulfonamide hydrochloride]",> 9.8 µM,> 9.78 µM
"Cc1cc(-c2cc(-c3cc(S(=O)(=O)NC[C@H]4C[C@@H](O)C4)ccc3C)cnc2N)on1 [Example 84, cis-3-(6-Amino-5-(3-methylisoxazol-5-yl)pyridin-3-yl)-N-(((1s,3s)-3-hydroxycyclobutyl)methyl)-4-methylbenzenesulfonamide]",> 10 µM,2.65 µM
"Cc1noc(-c2cc(-c3cc(S(=O)(=O)NCC(C)(C)O)c(F)cc3C)cnc2N)n1 [Example 85, 5-(6-Amino-5-(3-methyl-1,2,4-oxadiazol-5-yl)pyridin-3-yl)-2-fluoro-N-(2-hydroxy-2-methylpropyl)-4-methylbenzenesulfonamide]",> 10 µM,> 10 µM
"Cc1noc(-c2cc(-c3cc(S(=O)(=O)NC[C@@H]4CCOC4)ccc3C)cnc2N)n1 [Example 87, (S)-3-(6-Amino-5-(3-methyl-1,2,4-oxadiazol-5-yl)pyridin-3-yl)-4-methyl-N-((tetrahydrofuran-3-yl)methyl)benzenesulfonamide]",> 10 µM,6.1 µM
"Cc1cnc(-c2cc(-c3cc(S(=O)(=O)NCCC(C)(C)O)ccc3C)cnc2N)s1 [Example 91, 3-(6-Amino-5-(5-methylthiazol-2-yl)pyridin-3-yl)-N-(3-hydroxy-3-methylbutyl)-4-methylbenzenesulfonamide]",> 10 µM,0.79 µM
"Cc1nc(-c2cc(-c3cc(S(=O)(=O)N[C@H]4CC[C@H](O)CC4)ccc3C)cnc2N)cs1 [Example 92, 3-(6-Amino-5-(2-methylthiazol-4-yl)pyridin-3-yl)-N-((1r,4r)-4-hydroxycyclohexyl)-4-methylbenzenesulfonamide]",> 10 µM,5.1 µM
"Cc1nc(-c2cc(-c3cc(S(=O)(=O)NCCC(C)(C)O)ccc3C)cnc2N)cs1 [Example 93, 3-(6-Amino-5-(2-methylthiazol-4-yl)pyridin-3-yl)-N-(3-hydroxy-3-methylbutyl)-4-methylbenzenesulfonamide]",> 10 µM,7.5 µM
"Cc1ccc(S(=O)(=O)NCC(C)(C)O)cc1-c1cnc(N)c(-c2ncco2)c1 [Example 94b, 3-(6-amino-5-(oxazol-2-yl)pyridin-3-yl)-N-(2-hydroxy-2-methylpropyl)-4-methylbenzenesulfonamide]",> 10 µM,1.3 µM
"Cc1nnc(-c2cc(-c3cc(S(=O)(=O)NCC(C)(C)O)ccc3C)cnc2N)s1 [Example 102, 3-(6-amino-5-(5-methyl-1,3,4-thiadiazol-2-yl)pyridin-3-yl)-N-(2-hydroxy-2-methylpropyl)-4-methylbenzenesulfonamide]",> 10 µM,8.6 µM
"Cc1ncc(-c2cc(-c3cc(S(=O)(=O)NCC4COC4)ccc3C)cnc2N)o1 [Example 104.3, 3-(6-amino-5-(2-methyloxazol-5-yl)pyridin-3-yl)-4-methyl-N-(oxetan-3-ylmethyl)benzenesulfon-amide]",4.7 µM,4.6 µM
"Cc1ncc(-c2cc(-c3cc(S(=O)(=O)NCC4(O)COC4)ccc3C)cnc2N)o1 [Example 104.7, 3-(6-amino-5-(2-methyloxazol-5-yl)pyridin-3-yl)-N-((3-hydroxyoxetan-3-yl)methyl)-4-methylbenzenesulfon-amide]",3.2 µM,1.8 µM
"Cc1ncc(-c2cc(-c3cc(S(=O)(=O)N[C@H]4CC[C@H](CO)CC4)ccc3C)cnc2N)o1 [Example 104.11, 3-(6-amino-5-(2-methyloxazol-5-yl)pyridin-3-yl)-N-((1r,4r)-4-(hydroxymethyl)cyclo-hexyl)-4-methylbenzenesulfon-amide]",0.3 µM,0.5 µM
"Cc1ncc(-c2cc(-c3cc(S(=O)(=O)NCC4(CO)CCOCC4)ccc3C)cnc2N)o1 [Example 104.13, 3-(6-amino-5-(2-methyloxazol-5-yl)pyridin-3-yl)-N-((4-(hydroxymethyl)tetra-hydro-2H-pyran-4-yl)methyl)-4-methylbenzenesulfon-amide]",> 10 µM,3.4 µM
"Cc1nnc(-c2cc(-c3cc(S(=O)(=O)NCCC(C)(C)O)ccc3C)cnc2N)s1 [Example 105, 3-(6-amino-5-(5-methyl-1,3,4-thiadiazol-2-yl)pyridin-3-yl)-N-(3-hydroxy-3-methylbutyl)-4-methylbenzenesulfonamide]",> 10 µM,2.9 µM
"Cc1ncc(-c2cc(-c3cc(S(=O)(=O)NOCC(C)(C)O)ccc3C)cnc2N)o1 [Example 107, 3-(6-amino-5-(2-methyloxazol-5-yl)pyridin-3-yl)-N-(2-hydroxy-2-methylpropoxy)-4-methylbenzenesulfonamide hydrochloride]",> 10 µM,0.66 µM
"Cc1ccc(S(=O)(=O)NCC(C)(C)O)cc1-c1cnc(N)c(-c2ccn(C)n2)c1 [Example 110, 3-(6-amino-5-(1-methyl-1H-pyrazol-3-yl)pyridin-3-yl)-N-(2-hydroxy-2-methylpropyl)-4-methylbenzenesulfonamide]",> 10 µM,> 10 µM

# Source: patent publication US10112926B2 (priority 2014, dated 2018)
